# Laboratory results taken from publication PMC6961116, “Scaffold-hopping identifies furano[2,3-d]pyrimidine amides as potent Notum inhibitors” (Bioorganic & Medicinal Chemistry Letters, 2020).
# Where two headings read alike, the source gives them in different places.
# Columns and labels:
# Notum(81–451 Cys330Ser) [1] = target: T1, Notum(81–451 Cys330Ser) (Homo sapiens, UniProt Q6P988, C330S); conditions: thieno[3,2-d]pyrimidine amides 4; OPTS assay; geometric mean ± s.d.; cited from earlier work
# T1 sequence (Q6P988 81-451 C330S): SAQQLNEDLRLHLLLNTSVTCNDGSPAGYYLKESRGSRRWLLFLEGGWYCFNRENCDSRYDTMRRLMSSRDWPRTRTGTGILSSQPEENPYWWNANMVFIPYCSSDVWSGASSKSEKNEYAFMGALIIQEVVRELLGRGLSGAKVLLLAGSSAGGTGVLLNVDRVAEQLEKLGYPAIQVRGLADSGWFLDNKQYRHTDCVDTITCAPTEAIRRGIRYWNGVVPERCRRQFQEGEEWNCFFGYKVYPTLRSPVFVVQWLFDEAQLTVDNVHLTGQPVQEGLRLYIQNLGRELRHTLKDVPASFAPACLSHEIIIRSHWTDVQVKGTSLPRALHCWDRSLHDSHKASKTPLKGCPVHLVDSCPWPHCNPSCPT
# MDCK-MDR1 monolayer = conditions: amides 4, cited from earlier work; for MDCK-MDR1 AB Papp: A to B direction; for MDCK-MDR1 BA Papp: B to A direction
# Notum(81–451 Cys330Ser) [2] = target: T1, Notum(81–451 Cys330Ser); test: Notum biochemical OPTS assay (carboxylesterase activity); conditions: for IC50: OPTS substrate, 1 h incubation, geometric mean ± s.d.
# [3] = Metabolic stability in mouse liver microsomes (MLM); format: in vitro ADME; conditions: mouse liver microsomes
# P-gp (MDR1) = test: MDCK-MDR1 cell permeability and efflux; format: in vitro ADME; conditions: dog; for efflux ratio: MDCK-MDR1, read-out: MDCK-MDR1 efflux ratio (ER)
# [4] = Hydrolytic stability in citrate buffer; format: physicochemical; conditions: citrate buffer 0.1 M, pH 4, up to 24 h, UPLC-MS
# Notum [5] = target: T2, Notum (Homo sapiens, UniProt Q6P988, C330S); test: Notum enzymatic stability (biochemical assay without OPTS substrate); conditions: up to 72 h
# T2 sequence (Q6P988 81-451 C330S): T1 sequence (Q6P988 81-451 C330S)
# Notum [6] = target: T3, Notum (Homo sapiens, UniProt Q6P988); test: Notum TCF/LEF reporter (Luciferase) HEK293 cell assay
# T3 sequence (Q6P988 20-496): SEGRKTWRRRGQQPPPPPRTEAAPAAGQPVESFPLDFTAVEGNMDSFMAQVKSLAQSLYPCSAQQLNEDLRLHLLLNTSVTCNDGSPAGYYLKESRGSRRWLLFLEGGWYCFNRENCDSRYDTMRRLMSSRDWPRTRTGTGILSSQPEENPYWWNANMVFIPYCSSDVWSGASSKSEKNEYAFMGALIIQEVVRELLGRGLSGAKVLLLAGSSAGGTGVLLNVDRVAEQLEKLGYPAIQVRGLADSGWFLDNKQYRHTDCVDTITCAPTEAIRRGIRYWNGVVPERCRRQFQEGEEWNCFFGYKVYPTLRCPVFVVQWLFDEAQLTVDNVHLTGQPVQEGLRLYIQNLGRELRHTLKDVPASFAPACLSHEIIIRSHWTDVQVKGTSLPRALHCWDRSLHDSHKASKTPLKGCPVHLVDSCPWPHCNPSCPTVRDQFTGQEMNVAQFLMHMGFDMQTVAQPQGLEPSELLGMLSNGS
# Excerpt: Selected compounds were screened for inhibition of Notum activity in a Wnt/β-catenin signaling pathway TCF/LEF Reporter (Luciferase) HEK293 cell line and Notum occupancy in a FP-biotin competition assay.[15], [18]
# [7] = MDCK-MDR1, A to B direction, read-out: MDCK-MDR1 AB Papp
# [8] = MDCK-MDR1, B to A direction, read-out: MDCK-MDR1 BA Papp
# [9] = read-out: Notum EC50 (TCF-LEF), rWNT3a 100 ng/mL, Notum 500 ng/mL, geometric mean ± s.d., n = 3–4
IC50 (Notum(81–451 Cys330Ser) [2]),MLM Cli [3],Papp (P-gp (MDR1); [7]),Papp (P-gp (MDR1); [8]),efflux ratio (P-gp (MDR1)),Compound,further results
,,,,,O=C1CN(C(=O)CSc2ncnc3c(C4CC4)c(Cl)sc23)CCN1 [Compound 4d],IC50 (Notum(81–451 Cys330Ser) [1]): < 10 nM; MDCK-MDR1 AB Papp (MDCK-MDR1 monolayer): 7.9 ×10⁻⁶ cm/s; MDCK-MDR1 BA Papp (MDCK-MDR1 monolayer): 65 ×10⁻⁶ cm/s
,,,,,O=C1CN(C(=O)CSc2ncnc3c(C4CC4)c(Cl)sc23)CN1 [Compound 4e],MDCK-MDR1 AB Papp (MDCK-MDR1 monolayer): 3.8 ×10⁻⁶ cm/s; MDCK-MDR1 BA Papp (MDCK-MDR1 monolayer): 14 ×10⁻⁶ cm/s
,,,,,O=C(CSc1ncnc2c(C3CC3)c(Cl)sc12)N1CCn2cnnc2C1 [Compound 4f],MDCK-MDR1 AB Papp (MDCK-MDR1 monolayer): 0.95 ×10⁻⁶ cm/s; MDCK-MDR1 BA Papp (MDCK-MDR1 monolayer): 93 ×10⁻⁶ cm/s
15 ± 6 nM,360 µL/min/mg,,,,Cc1sc2ncnc(SCC(=O)N(C)C)c2c1Cl [Compound 5a],
220 ± 12 nM,,,,,Cc1sc2ncnc(SCC(=O)N3CCCCC3)c2c1Cl [Compound 5b],
69 ± 10 nM,,,,,Cc1sc2ncnc(SCC(=O)N3CCOCC3)c2c1Cl [Compound 5c],
5.8 ± 4 nM,19 µL/min/mg,12 ×10⁻⁶ cm/s,66 ×10⁻⁶ cm/s,5.5,Cc1sc2ncnc(SCC(=O)N3CCNC(=O)C3)c2c1Cl [Compound 5d],
2.7 ± 0.5 nM,65 µL/min/mg,14 ×10⁻⁶ cm/s,82 ×10⁻⁶ cm/s,5.9,Cc1sc2ncnc(SCC(=O)N3CNC(=O)C3)c2c1Cl [Compound 5e],
3.2 ± 0.1 nM,13 µL/min/mg,0.6 ×10⁻⁶ cm/s,56 ×10⁻⁶ cm/s,93,Cc1sc2ncnc(SCC(=O)N3CCn4cnnc4C3)c2c1Cl [Compound 5f],Hydrolytic stability [4]: only parent was detected; Notum enzymatic stability (Notum [5]): only parent was detected
6.2 ± 0.5 nM,33 µL/min/mg,23 ×10⁻⁶ cm/s,62 ×10⁻⁶ cm/s,2.7,Cc1sc2ncnc(SCC(=O)N3CCN(C)C(=O)C3)c2c1Cl [Compound 5g],
4.2 ± 0.4 nM,100 µL/min/mg,1.1 ×10⁻⁶ cm/s,37 ×10⁻⁶ cm/s,34,CCN1CCN(C(=O)CSc2ncnc3sc(C)c(Cl)c23)CC1=O [Compound 5h],
33 ± 5 nM,,,,,Cc1sc2ncnc(SCC(=O)N3CC(=O)NC(C)C3)c2c1Cl (stereo not drawn) [Compound 5i],
450 ± 200 nM,,,,,Cc1sc2ncnc(SCC(=O)N3CC(=O)NC(C)(C)C3)c2c1Cl [Compound 5j],
20 ± 4 nM,63 µL/min/mg,7 ×10⁻⁶ cm/s,51 ×10⁻⁶ cm/s,7.3,Cc1sc2ncnc(SCC(=O)N3CC(=O)N4CCCC4C3)c2c1Cl (stereo not drawn) [Compound 5k],
2.6 ± 0.1 nM,43 µL/min/mg,35 ×10⁻⁶ cm/s,51 ×10⁻⁶ cm/s,1.5,CCN1CN(C(=O)CSc2ncnc3sc(C)c(Cl)c23)CC1=O [Compound 5m],
3.8 ± 1.3 nM,49 µL/min/mg,,,,Cc1sc2ncnc(SCC(=O)N3CC(=O)N(C4CC4)C3)c2c1Cl [Compound 5n],
3.9 ± 0.4 nM,140 µL/min/mg,,,,Cc1sc2ncnc(SCC(=O)N3CC(=O)N(CC(F)(F)F)C3)c2c1Cl [Compound 5o],
16 ± 2 nM,15 µL/min/mg,0.5 ×10⁻⁶ cm/s,51 ×10⁻⁶ cm/s,> 100,Cc1sc2ncnc(SCC(=O)N3CCn4c(C)nnc4C3)c2c1Cl [Compound 5p],
23 ± 5 nM,38 µL/min/mg,0.8 ×10⁻⁶ cm/s,65 ×10⁻⁶ cm/s,81,CCc1nnc2n1CCN(C(=O)CSc1ncnc3sc(C)c(Cl)c13)C2 [Compound 5q],
27 ± 3 nM,53 µL/min/mg,0.8 ×10⁻⁶ cm/s,78 ×10⁻⁶ cm/s,97,Cc1sc2ncnc(SCC(=O)N3CCn4c(nnc4C4CC4)C3)c2c1Cl [Compound 5r],
38 ± 3 nM,93 µL/min/mg,15 ×10⁻⁶ cm/s,85 ×10⁻⁶ cm/s,5.7,Cc1sc2ncnc(SCC(=O)N3CCn4c(nnc4C(F)(F)F)C3)c2c1Cl [Compound 5s],

IC50 (Notum(81–451 Cys330Ser) [2]),MLM Cli [3],Papp (P-gp (MDR1); [7]),Papp (P-gp (MDR1); [8]),efflux ratio (P-gp (MDR1)),Compound,further results
15 ± 3 nM,53 µL/min/mg,19 ×10⁻⁶ cm/s,49 ×10⁻⁶ cm/s,2.6,Cc1sc2ncnc(SCC(=O)N3CCn4ncnc4C3)c2c1Cl [Compound 5t],
11 ± 6 nM,37 µL/min/mg,17 ×10⁻⁶ cm/s,44 ×10⁻⁶ cm/s,2.6,Cc1nc2n(n1)CCN(C(=O)CSc1ncnc3sc(C)c(Cl)c13)C2 [Compound 5u],
18 ± 5 nM,140 µL/min/mg,15 ×10⁻⁶ cm/s,27 ×10⁻⁶ cm/s,1.8,Cc1sc2ncnc(SCC(=O)N3CCn4nc(C(F)(F)F)nc4C3)c2c1Cl [Compound 5v],
790 ± 70 nM,,,,,Cc1cc2c(SCC(=O)O)ncnc2s1 [Compound 6],
2100 nM,,,,,Cc1nc(SCC(=O)O)c2c(C)c(C)sc2n1 [Compound 8],
1 ± 0.4 nM,,,,,Cc1c(C(F)(F)F)sc2ncnc(SCC(=O)O)c12 [Compound 9],
3.9 ± 0.7 nM,,,,,Cc1sc2ncnc(SCC(=O)O)c2c1C(F)(F)F [Compound 10],
25 ± 4 nM,,,,,"Cc1c(C#N)sc2ncnc(SCC(=O)O)c12 [Compound 11, 2-((6-cyano-5-methylthieno[2,3-d]pyrimidin-4-yl)thio)acetic acid]",
8.1 nM,,,,,N#Cc1sc2c(SCC(=O)O)ncnc2c1C1CC1 [Compound 12],
77000 nM,,,,,O=C(O)CSc1ncnc2[nH]ccc12 [Compound 13],
20000 nM,,,,,O=C(O)CSc1ncnc2[nH]cc(Cl)c12 [Compound 14],
15000 nM,,,,,"Cn1ccc2c(SCC(=O)O)ncnc21 [Compound 15, 2-((7-methyl-7H-pyrrolo[2,3-d]pyrimidin-4-yl)thio)acetic acid]",
50000 nM,,,,,"O=C(O)CSc1ncnc2c1ccn2Cc1ccccc1 [Compound 16, 2-((7-benzyl-7H-pyrrolo[2,3-d]pyrimidin-4-yl)thio)acetic acid]",
1100 nM,,,,,Cc1nn(C)c2ncnc(SCC(=O)O)c12 [Compound 17],fold weaker Notum inhibition than 1 (Notum(81–451 Cys330Ser) [2]; relative to 1): 1000 fold
50 ± 14 nM,,,,,Cc1oc2ncnc(SCC(=O)O)c2c1C [Compound 18],fold weaker Notum inhibition than 7 (Notum(81–451 Cys330Ser) [2]; relative to thiophene analogue 7): 10 fold
3.2 ± 0.5 nM,,,,,Cc1c(C(F)(F)F)oc2ncnc(SCC(=O)O)c12 [Compound 19],
,45 µL/min/mg,5.9 ×10⁻⁶ cm/s,12 ×10⁻⁶ cm/s,2,CN1CN(C(=O)CSc2ncnc3c(C4CC4)c(Cl)sc23)CC1=O [Compound 20],EC50 (Notum [6]): < 250 nM; EC50 (Notum [6]; [9]): 110 nM
9.4 ± 1.5 nM,31 µL/min/mg,21 ×10⁻⁶ cm/s,45 ×10⁻⁶ cm/s,2.1,Cc1sc2ncnc(SCC(=O)N3CC(=O)N(C)C3)c2c1C [Compound 21],"Activation of Wnt signaling (in words) (Notum [6]; TCF/LEF reporter, rWNT3a 100 ng/mL, Notum 500 ng/mL): only modest activation of Wnt signaling; EC50 (Notum [6]; [9]): 1300 nM"
1.6 ± 0.1 nM,27 µL/min/mg,31 ×10⁻⁶ cm/s,35 ×10⁻⁶ cm/s,1.1,Cc1c(C(F)(F)F)sc2ncnc(SCC(=O)N3CC(=O)N(C)C3)c12 [Compound 22],EC50 (Notum [6]; [9]): 210 nM
7 ± 2.5 nM,24 µL/min/mg,,,,Cc1sc2ncnc(SCC(=O)N3CC(=O)N(C)C3)c2c1C(F)(F)F [Compound 23],EC50 (Notum [6]; [9]): 170 nM
